Laboratory results from patent US20250154172A1, “PRMT5 INHIBITORS AND USES THEREOF” (Gilead Sciences, Inc., priority 2023, published 2025).

Tested on: HCT116 MTAP-deleted cell lines
Test: Cell viability assay for HCT116 isogenic pair (CellTitre-Glo, 7 days)
Assay type: cell-based
Conditions: Homo sapiens, HCT-116, 168 h, 7 days of treatment, cell line not given
Protocol: Control compounds were analyzed in parallel each time for quality control.
In Brief, on Day −1, a serial dilution of stock compounds in DMSO was performed using BioMek liquid handlers and dispensed using Echo acoustic dispenser into 384 well plates. Both tool compounds and sample compounds were spotted in the same plate for a dose response of PRMT5 inhibitors. Compound plates were stored as frozen until the cells were ready for seeding.
On Day 0, 100 HCT WT or HCT116 MTAP-deleted cells were seeded in compound-containing 384 well plates (50 μl per well) in RPMI 1640 media supplemented with 10% heat inactivated fetal bovine serum, Glutamax and penicillin streptomycin using EL460 liquid dispenser 5 μl cassette (BioTek, part no. 7170011). After equilibrating the plate in room temperature, the cells were incubated for 7 days inside the sealed incubator set at 37° C. with 90% humidity and 5% CO2.
On Day 7, the viability of cells was measured using a CTG assay kit (CellTitre-Glo; Promega cat no. G7573). Shortly, 40 μl per well of luminescent cell viability assay reagent were dispensed using EL460 liquid dispenser 5 μl cassette. CTG luminescence signal was measured using an EnVision plate reader (PerkinElmer) in accordance with manufacturer's instruction. The CCso values for each compound after 7 days of treatment were calculated using 4 parameter non-linear logistical curve fit.
For the cell viability assay ie CC50 shown in nM in Table 3.

Row | SMILES | CC50
1 | Nc1nc2cnc(C(=O)N3CCC[C@@H]4Oc5cc(C(F)(F)F)ccc5[C@@H]43)cc2c2c1COC2 (racemic) [Example Ca-1, (Rac)-(4-amino-1,3-dihydrofuro[3,4-c][1,7]naphthyridin-8-yl)((4aS,9bS)-7-(trifluoromethyl)-3,4,4a,9b-tetrahydrobenzofuro[3,2-b]pyridin-1(2H)-yl)methanone] | 26 nM
2 | COc1ccc2c(c1)CO[C@H]1CCCN(C(=O)c3ccc4nc(N)c5cnn(C)c5c4c3)[C@@H]21 (racemic) [Example Ca-8, Rac-(4-amino-1-methyl-1H-pyrazolo[4,3-c]quinolin-8-yl)((4aS,10bS)-8-methoxy-2,3,4,4a,6,10b-hexahydro-1H-isochromeno[4,3-b]pyridin-1-yl)methanone] | 23 nM
3 | Cn1ncc2c(N)nc3cc(F)c(C(=O)N4CCO[C@@H]5Cc6cc(C(F)(F)F)ccc6[C@@H]54)cc3c21 (racemic) [Example Ca-10, (Rac)-(4-amino-7-fluoro-1-methyl-1H-pyrazolo[4,3-c]quinolin-8-yl)(7-(trifluoromethyl)-2,3,9,9a-tetrahydroindeno[2,1-b][1,4]oxazin-4(4aH)-yl)methanone] | 10 nM
4 | Cn1ncc2c(N)nc3ccc(C(=O)N4CCO[C@@H]5Cc6cc(C(F)(F)F)ccc6[C@@H]54)cc3c21 (racemic) [Example Ca-11, (Rac)-(4-amino-1-methyl-1H-pyrazolo[4,3-c]quinolin-8-yl)(7-(trifluoromethyl)-2,3,9,9a-tetrahydroindeno[2,1-b][1,4]oxazin-4(4aH)-yl)methanone] | 65 nM
5 | Cn1ncc2c(N)nc3ccc(C(=O)N4CCO[C@@H]5Cc6cc(Br)ccc6[C@@H]54)cc3c21 (racemic) [Example Ca-12, (Rac)-(4-amino-1-methyl-1H-pyrazolo[4,3-c]quinolin-8-yl)(7-bromo-2,3,9,9a-tetrahydroindeno[2,1-b][1,4]oxazin-4(4aH)-yl)methanone] | 53 nM
6 | Cn1ncc2c(N)nc3cnc(C(=O)N4CCC5CC4c4ccc(C(F)(F)F)cc45)cc3c21 (racemic) [Example Ca-14, (Rac)-(4-amino-1-methyl-1H-pyrazolo[4,3-c][1,7]naphthyridin-8-yl)((1R,5S)-7-(trifluoromethyl)-1,3,4,5-tetrahydro-2H-1,5-methanobenzo[c]azepin-2-yl)methanone] | 16 nM
7 | Cn1ncc2c(N)nc3cnc(C(=O)N4CCC[C@@H]5Oc6cc(OC(F)F)c(F)cc6[C@@H]54)cc3c21 (racemic) [Example Ca-21, (Rac)-(4-amino-1-methyl-11H-pyrazolo[4,3-c][1,7]naphthyridin-8-yl)(7-(difluoromethoxy)-8-fluoro-3,4,4a,9b-tetrahydrobenzofuro[3,2-b]pyridin-1(2H)-yl)methanone] | 15 nM
8 | Nc1nc2cnc(C(=O)N3CCC[C@@H]4Cc5cc(C(F)(F)F)ccc5[C@@H]43)cc2c2c1COC2 (racemic) [Example Ca-23, (Rac)-(4-amino-1,3-dihydrofuro[3,4-c][1,7]naphthyridin-8-yl)((4aR,9bR)-7-(trifluoromethyl)-2,3,4,4a,5,9b-hexahydro-1H-indeno[1,2-b]pyridin-1-yl)methanone] | 134 nM
9 | Cn1ncc2c(N)nc3cnc(C(=O)N4CCC[C@@H]5Cc6cc(C(F)(F)F)ccc6[C@@H]54)cc3c21 (racemic) [Example Ca-24, (Rac)-(4-amino-1-methyl-1H-pyrazolo[4,3-c][1,7]naphthyridin-8-yl)((4aR,9bR)-7-(trifluoromethyl)-2,3,4,4a,5,9b-hexahydro-1H-indeno[1,2-b]pyridin-1-yl)methanone] | 42 nM
10 | Nc1nc2cnc(C(=O)N3CCC[C@@H]4Oc5nc(C(F)(F)F)ccc5[C@@H]43)cc2c2c1COC2 (racemic) [Example Ca-32, Rac-(4-amino-1,3-dihydrofuro[3,4-c][1,7]naphthyridin-8-yl)((4aS,9bS)-7-(trifluoromethyl)-3,4,4a,9b-tetrahydrofuro[2,3-b:4,5-b′]dipyridin-1(2H)-yl)methanone] | 54 nM
11 | C[C@@H]1C[C@@H]2CCc3cc(C(F)(F)F)ccc3[C@@H]2N(C(=O)c2cc3c(cn2)nc(N)c2cnn(C)c23)C1 (racemic) [Example Ca-39, (Rac)-(4-amino-1-methyl-1H-pyrazolo[4,3-c][1,7]naphthyridin-8-yl)((3R,4aS,10bR)-3-methyl-8-(trifluoromethyl)-3,4,4a,5,6,10b-hexahydrobenzo[h]quinolin-1(2H)-yl)methanone] | 79 nM
12 | C[C@@H]1C[C@@H]2CCc3cc(C(F)(F)F)ccc3[C@@H]2N(C(=O)c2cc3c4c(c(N)nc3cn2)COC4)C1 (racemic) [Example Ca-40, (Rac)-(4-amino-1,3-dihydrofuro[3,4-c][1,7]naphthyridin-8-yl)((3R,4aS,10bR)-3-methyl-8-(trifluoromethyl)-3,4,4a,5,6,10b-hexahydrobenzo[h]quinolin-1(2H)-yl)methanone] | 179 nM
13 | C[C@@H]1CC[C@@H]2Oc3cc(OC(F)(F)F)ccc3[C@@H]2N1C(=O)c1cc2c(cn1)nc(N)c1cnn(C)c12 (racemic) [Example Ca-41, (Rac)-(4-amino-1-methyl-1H-pyrazolo[4,3-c][1,7]naphthyridin-8-yl)((2R,4aS,9bS)-2-methyl-7-(trifluoromethoxy)-3,4,4a,9b-tetrahydrobenzofuro[3,2-b]pyridin-1(2H)-yl)methanone] | 30 nM
14 | Cn1ncc2c(N)nc3ccc(C(=O)N4CC[C@@H]5Oc6cc(C(F)(F)F)ccc6[C@@H]54)cc3c21 (racemic) [Example Ca-55, Rac-(4-amino-1-methyl-1H-pyrazolo[4,3-c]quinolin-8-yl)((3aS,8bS)-6-(trifluoromethyl)-2,3,3a,8b-tetrahydro-1H-benzofuro[3,2-b]pyrrol-1-yl)methanone] | 106 nM
15 | CN(C(=O)c1cc2c(cn1)nc(N)c1cnn(C)c12)[C@H]1c2ccc(C(F)(F)F)cc2[C@@H]2C[C@@H]21 (single isomer, unassigned) [Example Ca-25] | 43 nM
16 | CN(C(=O)c1cc2c(cn1)nc(N)c1cnn(C)c12)[C@H]1c2ccc(C(F)(F)F)cc2[C@H]2C[C@H]21 (single isomer, unassigned) [Example Ca-26] | 25 nM
17 | CN(C(=O)c1cc2c(cn1)nc(N)c1cnn(C)c12)[C@@H]1c2ccc(C(F)(F)F)cc2[C@H]2C[C@H]21 (single isomer, unassigned) [Example Ca-27] | 88 nM
18 | CN(C(=O)c1cc2c(cn1)nc(N)c1cnn(C)c12)[C@@H]1c2ccc(C(F)(F)F)cc2[C@@H]2C[C@H]12 (single isomer, unassigned) [Example Ca-28] | 1290 nM
19 | C[C@@H]1CN(C(=O)c2cc3c(cn2)nc(N)c2cnn(C)c23)[C@H]2c3ccc(Br)c(F)c3C[C@H]2O1 (single isomer, unassigned) [Example Ca-30] | 75 nM
20 | C[C@H]1CN(C(=O)c2cc3c(cn2)nc(N)c2cnn(C)c23)[C@H]2c3ccc(Br)c(F)c3C[C@H]2O1 (single isomer, unassigned) [Example Ca-31] | 32 nM
21 | C[C@@H]1CN(C(=O)c2cc3c(cn2)nc(N)c2cnn(C)c23)[C@H]2c3ccc(Cl)cc3C[C@H]2O1 (single isomer, unassigned) [Example Ca-37] | 22 nM
22 | C[C@H]1CN(C(=O)c2cc3c(cn2)nc(N)c2cnn(C)c23)[C@H]2c3ccc(Cl)cc3C[C@H]2O1 (single isomer, unassigned) [Example Ca-38] | 129 nM
23 | Cn1ncc2c(N)nc3cc(Cl)c(C(=O)N4CCC[C@H]5Oc6cc(C(F)(F)F)ccc6[C@H]54)cc3c21 (stereo in doubt) [Example Ca-3, (4-amino-7-chloro-1-methyl-1H-pyrazolo[4,3-c]quinolin-8-yl)((4aR,9bR)-7-(trifluoromethyl)-3,4,4a,9b-tetrahydrobenzofuro[3,2-b]pyridin-1(2H)-yl)methanone] | 5 nM
24 | Cn1ncc2c(N)nc3cnc(C(=O)N4CC[C@H]5C[C@@H]4c4ccc(C(F)(F)F)nc4O5)cc3c21 [Example Ca-2, (4-amino-1-methyl-1H-pyrazolo[4,3-c][1,7]naphthyridin-8-yl)((2S,6R)-9-(trifluoromethyl)-3,4-dihydro-2H-2,6-methanopyrido[2,3-b][1,5]oxazocin-5(6H)-yl)methanone] | 8 nM
25 | Cn1ncc2c(N)nc3cc(F)c(C(=O)N4CCC[C@@H]5Oc6cc(C(F)(F)F)ccc6[C@@H]54)cc3c21 [Example Ca-4, (4-amino-7-fluoro-1-methyl-1H-pyrazolo[4,3-c]quinolin-8-yl)((4aS,9bS)-7-(trifluoromethyl)-3,4,4a,9b-tetrahydrobenzofuro[3,2-b]pyridin-1(2H)-yl)methanone] | 3 nM
26 | Cn1ncc2c(N)nc3ccc(C(=O)N4CCC[C@@H]5Oc6cc(C(F)(F)F)ccc6[C@@H]54)cc3c21 [Example Ca-5, (4-amino-1-methyl-1H-pyrazolo[4,3-c]quinolin-8-yl)((4aS,9bS)-7-(trifluoromethyl)-3,4,4a,9b-tetrahydrobenzofuro[3,2-b]pyridin-1(2H)-yl)methanone] | 8 nM
27 | Cn1ncc2c(N)nc3cnc(C(=O)N4CCC[C@@H]5Oc6cc(OC(F)(F)F)ccc6[C@@H]54)cc3c21 [Example Ca-6, (4-amino-1-methyl-1H-pyrazolo[4,3-c][1,7]naphthyridin-8-yl)((4aS,9bS)-7-(trifluoromethoxy)-3,4,4a,9b-tetrahydrobenzofuro[3,2-b]pyridin-1(2H)-yl)methanone] | 8 nM
